Experiments:
[1] = biological target: T1, LovD (Aspergillus terreus, UniProt Q9Y7D1); test: LovD transacylation assay: acyl transfer from acyl thioester to C8 hydroxyl of monacolin J, HPLC; assay type: biochemical; set-up: 6xHis (N); made in house; host or cells: E. coli BL21(DE3)/pAW31 (pET28a); settings: for substrate competence for LovD / apparent kcat (initial turnover rate in the linear range) of monacolin J acylation: 1 mM monacolin J; for substrate competence for LovD: 4 mM acyl-CoA, 10 uM LovD, 10 hours; for Initial Velocity (ki): 1 mM MJ, 4 mM thioester substrate, 10 uM pure LovD, rate of initial turnover in the linear range; for Initial Velocity (ki) / apparent kcat (initial turnover rate in the linear range) of monacolin J acylation: 50 mM HEPES, pH 7.9; for apparent kcat (initial turnover rate in the linear range) of monacolin J acylation: 10 μM LovD, 4 mM acyl donor
T1 sequence (Q9Y7D1 1-413): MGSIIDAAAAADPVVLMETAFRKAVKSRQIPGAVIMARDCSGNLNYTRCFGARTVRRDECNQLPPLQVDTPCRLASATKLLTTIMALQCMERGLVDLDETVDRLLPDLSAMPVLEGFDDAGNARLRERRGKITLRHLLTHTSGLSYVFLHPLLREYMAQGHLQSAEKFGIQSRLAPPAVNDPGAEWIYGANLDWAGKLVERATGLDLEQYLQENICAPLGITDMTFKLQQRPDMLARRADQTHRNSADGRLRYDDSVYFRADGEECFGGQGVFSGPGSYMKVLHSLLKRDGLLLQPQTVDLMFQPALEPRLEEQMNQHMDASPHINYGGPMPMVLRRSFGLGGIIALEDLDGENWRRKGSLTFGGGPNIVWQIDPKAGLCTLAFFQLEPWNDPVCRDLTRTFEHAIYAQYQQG
Method: We first examined if an acyl-CoA can be used as substrate for the transacylation reaction. The uninterrupted gene of LovD was amplified from A. terreus genomic DNA using splice by overlap extension PCR and was inserted into the pET28a expression vector. Overexpression of soluble, N-terminal 6×His fusion LovD was performed in E. coli strain BL21(DE3)/pAW31. LovD was purified using Nickel-NTA affinity column to homogeneity (final yield˜40 mg/L). The substrate monacolin J (1 mM) was prepared through the LiOH hydrolysis of lovastatin and was added to a reaction mixture containing pure LovD (10 μM) and butyryl-CoA (4 mM), which is a commercially available acyl-CoA that best mimics the natural α-methylbutyrate side chain. The reaction mixture was incubated at room temperature, extracted with ethyl acetate and analyzed by HPLC and LC-MS (FIG. 5).
We assayed the tolerance of LovD towards different acyl substituents by performing the transacylation assay with various commercially available acyl-CoAs (Table 1A). All assays were perform with 1 mM monacolin J, 4 mM acyl-CoA and 10 uM LovD for 10 hours.
Expression and purification of LovD has been previously described in detail (see, e.g., Xie et al., 2006, Chem Biol 13: 1161-1169). The assays were performed at room temperature in 50 mM HEPES, pH 7.9. The initial velocities (ki) of the acyl substrates were determined with 10 μM LovD, 1 mM monacolin J and 4 mM of the thioester. The reaction mixture at different time points was quenched by trifluoroacetic acid (TFA), extracted with ethyl acetate, evaporated to dryness and redissolved in acetonitrile. The percent conversion of monacolin J to simvastatin was determined by HPLC analysis (C18). The linear range of the turnover rate is reported as ki in Table 1B. To determine the Km of DMB-S-MMP, the concentration of monacolin J is fixed at 2 mM, while the concentration of DMB-S-MMP was varied from 0.2 mM to 10 mM. DMSO is added to a final concentration of 5% to facilitate solubilization of DMB-S-MMP. To obtain Km of monacolin J, DMB-S-MMP concentration is fixed at 2 mM, while the concentration of monacolin J is varied from 0.2 mM to 5 mM.

[2] = biological target: T2, BioH (Escherichia coli, UniProt P13001); test: BioH enzymatic hydrolysis assay of dimethylbutyryl thioesters, HPLC 234 nm; assay type: biochemical; settings: 1 mM substrate, 10 nM BioH
T2 construct: The bioH gene was amplified from E. coli genomic DNA by PCR with flanking restriction sites NdeI and EcoRI; 6xHis (N); made in house; host or cells: E. coli BL21(DE3)/pXK8 (pET28a)
T2 sequence (P13001 1-256): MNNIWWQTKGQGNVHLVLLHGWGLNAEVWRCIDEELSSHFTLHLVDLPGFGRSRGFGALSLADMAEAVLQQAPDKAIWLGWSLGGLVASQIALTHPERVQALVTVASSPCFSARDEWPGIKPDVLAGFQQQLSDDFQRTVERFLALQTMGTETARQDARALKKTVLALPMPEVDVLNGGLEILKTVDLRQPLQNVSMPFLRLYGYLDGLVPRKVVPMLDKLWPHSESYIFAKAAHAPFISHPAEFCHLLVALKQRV
Method: (§1) The hydrolysis assays were performed at room temperature in 50 mM HEPES, pH 7.9. The thioester substrate DMB-S-MMP was added to final concentration between 0.1 mM and 1.0 mM. To facilitate solubilization of DMB-S-MMP, DMSO was added to a final concentration of 10% for all the samples. The reaction was initiated with the addition of BioH (0.01 μM) and quenched at desired time points (10, 20, 30 minutes) by adding equal volume of EA/1% AcOH. The organic phase was separated, dried and redissolved in 20 μL of ACN and analyzed with HPLC. The conversions of DMB-S-MMP to DMB-S-MPA were quantified by integration of the peaks at 234 nm. Comparison of the BioH catalytic efficiency towards the three dimethylbutyryl thioesters were performed at 1 mM substrate concentration and 10 nM BioH concentration.

[3] = tested on: E. coli BL21(DE3)/pAW31; test: Whole cell biocatalysis with E. coli overexpressing LovD; assay type: cell-based, Escherichia coli; settings: 4 mM acyl donor
Method: The BL21(DE3)/pAW31 overexpression strain was grown in a shake flask (200 mL) to an OD600 of 1.0, at which time 1 mM IPTG, 0.8 mM monacolin J and 4 mM of either benzoyl-SNAC or benzoyl-SMTG were added to the culture. Expression of LovD and bioconversion was performed at 18° C. The culture was extracted and analyzed for the formation of 8-benzoyl-monacolin J. When supplemented with benzoyl-SNAC, 84% conversion of monacolin J was detected within 20 hours post-induction. The product was lactonized and purified by a single silica-gel chromatography step. The NMR spectra confirmed the regioselective benzoylation of the C8 hydroxyl group as the diagnostic H8 multiplet is shifted downfield to δ 5.61.
Fermentation conditions: 500 mL culture with LB media with 30 mg/L kanamycin. At OD600 of 1.0, cells were concentrated to a final OD600 of 5.0 and induced with 1 mM IPTG. Substrates monacolin J and α-dimethylbutyryl-SNAC were added to a final concentration of 1 mM and 4 mM. At different time points, culture samples were collected, centrifuged, filtered and injected on to HPLC (20 μL). Extraction conditions: When maximum conversion was reached, the broth was acidified to pH of 2.0, extracted with ethyl acetate, dried and redissolved in toluene.
Whole-cell catalytic synthesis of simvastatin acid from MJ acid and DMB-S-MMP were performed as described (see, e.g., Xie et al., (2007) Appl Environ Microbiol 73: 2054-2060). The E. coli BL21(DE3)/pAW31 and YT2/pAW31 strains were cultured side-by-side for comparison. A single colony of the freshly transformed strains was used to inoculate a 5 mL LB culture supplemented with 35 mg/L kanamycin and grown overnight at 37° C. The next morning, 100 μL of the overnight culture was inoculated into 50 mL cultures containing LB broth, F1 minimal medium and F1 medium supplemented with 0.15 mg/L biotin. Growth rates were monitored by periodically measuring the OD600 reading. When OD600 reached ˜0.5, 100 μM IPTG was added to the culture and expression of LovD was performed at 20° C. for 16 hours. To mimic high density fermentation conditions, the cells were concentrated 10-fold before addition of substrates. Typically, a 14 mL aliquot of the culture was transferred to a 15 mL centrifuge tube and the cells were collected by centrifugation (4° C., 4000 g, 10 minutes). The cell pellet was gently resuspended in 1316 μl of the supernatant, followed by addition of 84 μl of a MJ acid stock solution (250 mM in H2O) (final concentration 15 mM). The concentrated culture was then separated into seven 200 μL samples and 1.2 μL of pure DMB-S-MMP was added to each sample (final concentration ˜25 mM). The culture was then shaken at 300 rpm at room temperature. At each time point, a total extraction was performed by adding 10 μL 20% SDS to lyse the cells, followed by liquid-liquid extraction with 500 μL EA/1% AcOH. The organic phase was removed, evaporated, and redissolved in 50 μL ACN for HPLC analysis. For the BL21(DE3) sample, an additional 1.2 μL aliquot of DMB-S-MMP was added after 12 hours to replenish the hydrolyzed substrates.
The E. coli BL21(DE3)/pAW31 strain was grown in LB medium at 37° C. to an OD600 of 0.5, at which time 100 μM IPTG was added to the culture and expression was performed at RT for 16 hours. A 10 ml culture was transferred to a 15 mL centrifuge tube. The cells were collected by centrifugation (4000 g, 10 minutes). The cell pellet was resuspended in 957 μl of the supernatant. The pH was adjusted to pH 7.9 with 1.0 N NaOH, followed by addition of 33 μl 450 mM MJ (final concentration 15 mM) and 6 μl pure DMB-S-MMP (final concentration ˜25 mM). The culture was then shaken at 300 rpm at room temperature. At each time point, a 4 μL aliquot was removed from the reaction mixture, quenched in 300 μL ethyl acetate containing 1% TFA.

[4] = substrate: CCC(C)(C)C(=O)SCCC(=O)OC; test: BioH enzymatic hydrolysis assay of dimethylbutyryl thioesters, HPLC 234 nm; assay type: biochemical, Escherichia coli; settings: other: 50 mM HEPES, pH 7.9, 10% DMSO, 0.01 μM BioH
Method: as §1

`CC(=O)CC(=O)SCCNC(=O)CCNC(=O)[C@H](O)C(C)(C)COP(=O)(O)OP(=O)(O)OC[C@H]1O[C@@H](n2cnc3c(N)ncnc32)[C@H](O)[C@@H]1OP(=O)(O)O` [Acetoacetyl-CoA, reference compound] was tested, and the “substrate competence for LovD” value [1] was “excellent substrates”.

With `CCOC(=O)CCSC(=O)C(C)(C)CC` [DMB-S-EMP, dimethylbutyryl-S-ethyl mercaptopropionate] the “rate of substrate hydrolysis by BioH relative to DMB-S-MMP” value [2] was “significantly attenuated” and the “Initial Velocity (ki)” value [1] was 0.70 min⁻¹.

`CCC(C)(C)C(=O)SCCCC(=O)OC` [DMB-S-MMB, dimethylbutyryl-S-methyl mercaptobutyrate] was tested, and the “Initial Velocity (ki)” value [1] was 0.78 min⁻¹.

In the case of `CCC(C)(C)C(=O)SCC(=O)OC` [DMB-S-MTG, dimethylbutyryl-S-methyl thioglycolate], the “decrease in the rate of hydrolysis by BioH relative to DMB-S-MMP” value [2] is reported as 2.5 fold and the “Initial Velocity (ki)” value [1] is reported as 0.03 min⁻¹.

For `CCC(C)(C)C(=O)SCCNC(C)=O` [DMB-S-NAC, α-dimethylbutyryl-S-N-acetylcysteamine], the “conversion of monacolin J to simvastatin, low cell-density fermentation” value ([3]; 1 mM monacolin J, after two days of culturing) was about 90% and the “Initial Velocity (ki)” value [1] was 0.02 min⁻¹.

In the case of `CC(=O)NCCSC(=O)c1ccccc1` [benzoyl-SNAC], the “conversion of monacolin J (benzoylation) in vivo” value ([3]; 0.8 mM monacolin J, 18° C., within 20 hours post-induction) is reported as 84% and the “apparent kcat (initial turnover rate in the linear range) of monacolin J acylation” value (“apparent kcat” for short) [1] is reported as 0.002 s⁻¹.

For `CCCC(=O)SCCNC(C)=O` [butyryl-SNAC], the “apparent kcat” value [1] was 0.0015 s⁻¹.

For `CC(C)(COP(=O)(O)OP(=O)(O)OC[C@H]1O[C@@H](n2cnc3c(N)ncnc32)[C@H](O)[C@@H]1OP(=O)(O)O)[C@@H](O)C(=O)NCCC(=O)NCCSC(=O)CC(=O)O` [malonyl-CoA, reference compound], the “substrate competence for LovD” value [1] was “inactive”.

`C[C@H]1C=C2C=C[C@H](C)[C@H](CC[C@@H]3C[C@@H](O)CC(=O)O3)[C@H]2[C@@H](O)C1` [monacolin J] gave a Km ([1]; DMB-S-MMP fixed at 2 mM, monacolin J 0.2-5 mM) of 780 ± 120 µM.

`CCCCCCCCCCCCCCCC(=O)SCCNC(=O)CCNC(=O)[C@H](O)C(C)(C)COP(=O)(O)OP(=O)(O)OC[C@H]1O[C@@H](n2cnc3c(N)ncnc32)[C@H](O)[C@@H]1OP(=O)(O)O` [palmitoyl-CoA, reference compound] was tested, and the “substrate competence for LovD” value [1] was “inactive”.

In the case of `CC[C@H](C)C(=O)SCCNC(C)=O` [α-S-methylbutyryl-SNAC], the “apparent kcat” value [1] is reported as about 0.00067 s⁻¹.

In the case of `CC(O)CC(=O)SCCNC(=O)CCNC(=O)[C@H](O)C(C)(C)COP(=O)(O)OP(=O)(O)OC[C@H]1O[C@@H](n2cnc3c(N)ncnc32)[C@H](O)[C@@H]1OP(=O)(O)O` (stereo partly drawn) [β-hydroxylbutyryl-CoA, reference compound], the “substrate competence for LovD” value [1] is reported as “excellent substrates”.

B1: BioH (Escherichia coli K-12) (protein)
chain: MNNIWWQTKGQGNVHLVLLHGWGLNAEVWRCIDEELSSHFTLHLVDLPGFGRSRGFGALSLADMAEAVLQQAPDKAIWLGWSLGGLVASQIALTHPERVQALVTVASSPCFSARDEWPGIKPDVLAGFQQQLSDDFQRTVERFLALQTMGTETARQDARALKKTVLALPMPEVDVLNGGLEILKTVDLRQPLQNVSMPFLRLYGYLDGLVPRKVVPMLDKLWPHSESYIFAKAAHAPFISHPAEFCHLLVALKQRV
notes: The bioH gene was amplified from E. coli genomic DNA by PCR with flanking restriction sites NdeI and EcoRI; 6xHis (N); made in house; host or cells: E. coli BL21(DE3)/pXK8 (pET28a)
Work on B1 yielded a Km [4] of 229 ± 26 µM and a kcat [4] of 260 ± 45 s⁻¹.

Source: patent publication US9970037B2, “Methods and materials for making simvastatin and related compounds” (The Regents of the University of California, priority 2006, dated 2018)
